From article PMC4506051, “Pharmacokinetic Profiles of Active Ingredients and Its Metabolites Derived from Rikkunshito, a Ghrelin Enhancer, in Healthy Japanese Volunteers: A Cross-Over, Randomized Study” (PLoS ONE, 2015)

Experiments:
[1] = Method validation: freeze-thaw stability in plasma; conditions: 160 pg/mL, deep freezer (−30°C to −10°C), after 3 cycles of freeze-thaw
[2] = Method validation: long-term stability in plasma; conditions: 160 pg/mL
[3] = Method validation: stability in standard, stock and working solution; conditions: 0.1 mg/mL
[4] = Method validation: stability in blood; conditions: 4 pg/mL
[5] = clinical; conditions: human, in vivo, po, Median t max (range)
Excerpt: The first trial was a nonrandomized, open-label, one-period design. The second trial was a randomized, open-label, three-arm, three-period design (Fig 1). With respect to inclusion criteria, the studies included healthy Japanese adults between 20 and 45 years of age with a body mass index between 18 and 25 who were willing and able to comply with the study requirements. Exclusion criteria for this study included a history of significant liver, heart, or vessel disease and consumption of supplements that contained any rikkunshito ingredients or any drug within 3 days to 1 week before the first dose. Other standard exclusion criteria included relevant allergies, pregnant or nursing females, and any alcohol or nicotine use. The sample size was set as more than 15 based on the Ministry of Health, Labour and Welfare’s guidelines. Subjects allocated to a screening test were randomized to one of three groups by the central allocation system (allocation ratio 1:1:1). A random sequence was generated using a computer. The safety endpoint was evaluated in all volunteers. This endpoint was defined on the basis of a physician’s judgement after examination or observation that a serious adverse event had occurred. Adverse events included death, a life-threatening event, an event requiring hospitalization for treatment or an extended stay in hospital, an event resulting in permanent or temporary disability or dysfunction, an event resulting in a congenital abnormality, or any other serious medical phenomenon. With respect to side effects, no specific conditions were defined, and all adverse events for which no causal relationship with the drug could be excluded were deemed to be side effects. In each stage during the 48-h period following rikkunshito administration, the physician monitored the patient for subjective symptoms, objective findings, swelling, body temperature (axillary), blood pressure (sitting), and pulse (sitting). The physician also conducted a hematological examination to measure the patient’s red blood cell, leucocyte and platelet counts, hemoglobin level, and hematocrit value. A biochemical examination was conducted to determine total protein, blood urea nitrogen, creatinine, uric acid, aspartate aminotransferase, alanine aminotransferase, total bilirubin, alkaline phosphatase, γ-glutamyltranspeptidase albumin, prothrombin time, total cholesterol, C-reactive protein, and potassium to identify any abnormalities in comparison with the subject’s condition prior to administration. All participants fasted for 12 h before administration and 4 h after administration of the study drug.
In the second quantitative trial, 12-mL blood samples were collected at 0 (preadministration), 0.25, 0.5, 1, 2, 3, 4, 6, 8, 10, 12, 24, and 48 h after a single oral administration of rikkunshito (Lot H05142). A total of 3 daily doses were used in this trial, i.e., the clinical dose per administration (2.5 g) as the lowest dose, the clinical daily dose (7.5 g) as the highest dose, and an intermediate dose (5.0 g), to broadly discuss the pharmacokinetic characteristics of the ingredients measured. The trial participants were hospitalized overnight on the day they ingested rikkunshito, and returned home the following day after blood samples were collected at the 24-h time point. The participants returned to the hospital to provide blood samples at 48 h. The blood was immediately centrifuged at 1700 ×g for 15 min to obtain plasma. Plasma fractions were stored at −20°C or lower until analysis.
Plasma, urine, and rikkunshito formulation samples were analyzed for rikkunshito ingredients concentrations using a liquid chromatography–mass spectrometry with tandem mass spectrometer assay (LC–MS/MS; API5000, Triple Quad 6500, or QTRAP5500; AB Sciex, Tokyo, Japan) or gas chromatography–mass spectrometry. Further information of analytical methods can be found at S1 Appendix.

[6] = Method validation: post-preparative stability (autosampler)
[7] = Formation of ingredients derived from rikkunshito in formulation, blood, and urine (S11 Table summary); conditions: after rikkunshito administration, per ingredient in the formulation; for Formation of ingredients: form found in Urine: BQL = below the quantification limit
[8] = of the ingredient in the formulation; summary table, reference not given; cited from earlier work
[9] = Exploratory trial: amount of rikkunshito ingredients in urine; format: in vivo, human
Description: (§1) In the first exploratory trial, 20-mL blood samples were collected from the cutaneous vein in the subjects’ forearm via a blood sampling tube that contained heparin at 0 (preadministration), 0.5, 1, 2, 4, and 8 h after a single oral administration of rikkunshito (Lot E24652). The dose of rikkunshito used in this trial was 7.5 g/day, which is the clinical daily dose, to widely explore rikkunshito-derived ingredients that enter the blood. Along with plasma, urine samples were collected at three points: between dinner and bedtime (preadministration), between 0 and 4 h after administration, and between 4 and 8 h after administration. The blood was immediately centrifuged at 1700 ×g for 10 min to obtain plasma. Plasma and urine fractions were stored at −80°C or lower until analysis.
(§2) For quantification of synephrine, 5 µL of standard solution or methanol was added to 100 µL plasma or urine samples followed by mixing. Ten microliters of erythromycin [internal standard (IS)] solution was added to the solutions followed by mixing and centrifugation (20,400 ×g, 5 min, 4°C). The supernatants were loaded onto an Ostro 96-well plate (Waters) and centrifuged (1500 ×g, 3 min, 4°C) followed by injection into the LC–MS/MS.
(§3) For quantification of 30 ingredients other than atractylodin and synephrine, 25 µL of standard solution or methanol was added to 500 µL plasma or urine samples followed by mixing. Atractylenolide III or digoxin (IS) solution (50 μL) was added to the solutions followed by mixing. For urine, 400 µL of blank plasma was added to the solutions. Ammonium acetate solution (100 mM, 100 or 400 µL) was added to the solutions followed by mixing. For enzymatic treatment, plasma and urine samples were incubated with β-glucuronidase (100 units in 100 mM ammonium acetate) for 2 h at 37°C. A solid-phase cartridge (OASIS HLB, 30 mg/1cc, Waters) was conditioned with methanol and 10 mM ammonium acetate solution, and the samples were loaded onto the cartridge. The cartridge was washed water : methanol (9:1, v/v), and 1.5 mL of methanol and 30 µL of propylene glycol were added to the cartridge to elute the analytes. The mixtures were dried at 25°C under a stream of nitrogen gas. Furthermore, 100 μL of 10 mM ammonium acetate : methanol (8:2, v/v) was added to the dried samples followed by mixing and sonication. The solutions were filtered (0.22 µm) and followed by injection into the LC–MS/MS system. […] Those analytical conditions are summarized in S2 Table and S3 Table.

[10] = Stability of ingredients in gastric pH solution (pH 1.2, 37°C); format: physicochemical; conditions: pH 1.2
Description: Rikkunshito gradually dissolved in acidic solution (pH 1.2) at 37°C, and the concentration of atractylodin after adding 0.25, 0.5, 1, and 2 h was measured by gas chromatography–mass spectrometry.

[11] = Exploratory trial: plasma concentration of rikkunshito ingredients after single oral rikkunshito 7.5 g; format: in vivo; conditions: mean ± S.D., n = 4; for Plasma concentration, 0 h: 0 h (preadministration), single oral rikkunshito 7.5 g; for Plasma concentration, 0.5 h: 0.5 h after single oral rikkunshito 7.5 g; for Plasma concentration, 1 h: 1 h after single oral rikkunshito 7.5 g; for Plasma concentration, 2 h: 2 h after single oral rikkunshito 7.5 g; for Plasma concentration, 4 h: 4 h after single oral rikkunshito 7.5 g; for Plasma concentration, 8 h: 8 h after single oral rikkunshito 7.5 g
Description: A random sequence was generated using a computer. The safety endpoint was evaluated in all volunteers.
as §1, §2, §3

| SMILES | Formation of ingredients: form found in Blood [7] | Formation of ingredients: form found in Urine [7] | Metabolite by enterobacterium [8] | Amount in urine, Pre ([9]; human, in vivo) | Amount in urine, 4–8 h ([9]; human, in vivo, po) | Stability in gastric pH solution, Quantitative value ([10]; 0.5 h) | Stability in gastric pH solution, Quantitative value ([10]; 1 h) | Stability in gastric pH solution, Quantitative value ([10]; 2 h) | Plasma concentration, 0 h [11] | Plasma concentration, 0.5 h [11] | Plasma concentration, 1 h [11] | Plasma concentration, 2 h [11] | Plasma concentration, 4 h [11] | Plasma concentration, 8 h [11] | also measured |
| --- | --- | --- | --- | --- | --- | --- | --- | --- | --- | --- | --- | --- | --- | --- | --- |
| O=C1C[C@@H](c2ccc(O)cc2)Oc2cc(O)ccc21 [Liquiritigenin] | – | – | – | – | – | – | – | – | – | – | – | – | – | – | Freeze-thaw stability, RR [1]: 92.5%; Long-term stability, RR ([2]; freezer (−30°C to −10°C) for 22 days): 92.5%; Long-term stability, RR ([2]; freezer (−30°C to −10°C) for 31 days): 87.4%; Long-term stability, RR ([2]; freezer (−30°C to −10°C) for 220 days): 87.9%; Stock solution stability, RR ([3]; refrigerator (1°C to 8°C) for 54 days): 54 days: 99.6%; Stock solution stability, RR ([3]; refrigerator (1°C to 8°C) for 129 days): 129 days: 103.5%; Stability in blood, RR ([4]; at room temperature for 2 h): 82.0%; Stability in blood, RR ([4]; on ice for 2 h): 91.6%; Tmax [5]: > 3 h; Post-preparative stability, RR ([6]; 4 pg/mL, autosampler set at 4°C for 25 h): 89.2%; Post-preparative stability, RR ([6]; 4 pg/mL, autosampler set at 4°C for 48 h): 94.1%; Post-preparative stability, RR ([6]; 160 pg/mL, autosampler set at 4°C for 25 h): 99.3%; Post-preparative stability, RR ([6]; 160 pg/mL, autosampler set at 4°C for 48 h): 103.4% |
| O=C1C[C@@H](c2ccc(O[C@@H]3O[C@H](CO)[C@@H](O)[C@H](O)[C@H]3O)cc2)Oc2cc(O)ccc21 [Liquiritin] | Liquiritin Liquiritigenin^c | Liquiritin Liquiritigenin^c | Liquiritigenin^b | 15.7 ± 19.0 ng | 1900 ± 945 ng | 1670 ng/mL | 1830 ng/mL | 1720 ng/mL | BQL | 1.02 ± 0.131 ng/mL | 0.841 ± 0.0943 ng/mL | 0.403 ± 0.0913 ng/mL | 0.114 ± 0.0392 ng/mL | BQL | – |
| C[C@@H]1O[C@@H](O[C@H]2[C@H](Oc3cc(O)c4c(c3)O[C@H](c3ccc(O)cc3)CC4=O)O[C@H](CO)[C@@H](O)[C@@H]2O)[C@H](O)[C@H](O)[C@H]1O [Naringin] | Naringin Naringenin Conjugate metabolites of naringenin^a | Naringin Naringenin | Naringenin (portion) | 70.7 ± 69.2 ng | 598 ± 329 ng | 959 ng/mL | 1060 ng/mL | 986 ng/mL | BQL | BQL | 0.059 ± 0.0684 ng/mL | BQL | BQL | BQL | Amount in urine, 0–4 h ([9]; human, in vivo, po): 1030 ± 313 ng |
| C[C@@H]1O[C@@H](OC[C@H]2O[C@@H](Oc3cc(O)c4c(c3)O[C@H](c3ccc(O)cc3)CC4=O)[C@H](O)[C@@H](O)[C@@H]2O)[C@H](O)[C@H](O)[C@H]1O [Narirutin] | Naringenin Conjugate metabolites of naringenin^a | Naringenin | Naringenin | – | – | 1630 ng/mL | 1700 ng/mL | 1690 ng/mL | – | – | – | – | – | – | Amount in urine, 0–4 h ([9]; 0–4 h after single oral rikkunshito 7.5 g, mean ± S.D., n = 4): BQL; Amount in urine, 4–8 h ([9]; 4–8 h after single oral rikkunshito 7.5 g, mean ± S.D., n = 4): BQL; Amount in urine, Pre ([9]; preadministration (between dinner and bedtime), mean ± S.D., n = 4): 9.26 ± 18.5 ng |
| O=C(/C=C/c1ccc(O[C@@H]2O[C@H](CO)[C@@H](O)[C@H](O)[C@H]2O)cc1)c1ccc(O)cc1O [isoliquiritin] | Isoliquiritigenin Conjugate metabolites of isoliquiritigenin | Isoliquiritigenin Conjugate metabolites of isoliquiritigenin | Isoliquiritigenin | – | – | – | – | – | – | – | – | – | – | – | – |
